The supplement of paper PMC11997997

Assays:
[1] = system: Mycobacterium tuberculosis CDC1551 (intracellular, in murine BMDM); experiment: area under intracellular growth-inhibition dose-response curve (AUC (% inhibition x dose, relative)); higher = more potent; conditions: duration: 6 days; dose range: 0.13-80 uM, 8 points
Summary of the method: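 Luciferase-expressing M. tuberculosis CDC1551 was used at multiplicity of infection 1 for 1 h to infect primary murine bone marrow-derived macrophages in 384-well opaque plates, 24 h after seeding. Treatment followed for 6 days with an 8-dose, 2.5-fold series at final concentrations of 80–0.13 μM. GraphPad Prism was used to calculate the area under the growth-inhibition dose–response curve from Bright-Glo luciferin readings normalised to a reference drug control and the lowest-concentration wells.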

[2] = system: murine bone marrow-derived macrophages; experiment: area under cytotoxicity dose-response curve (AUC (% cytotoxicity x dose, relative)); higher = more cytotoxic; conditions: duration: 6 days; dose range: 0.13-80 uM, 8 points
Summary of the method: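 Cytotoxicity is given as the area under the dose–response curve, computed in GraphPad Prism version 10. Primary murine bone marrow-derived macrophages in opaque 384-well plates received an 8-point, 2.5-fold dilution series (final 80–0.13 μM) for 6 days at 37 °C in 5% CO2. Viability was measured by Promega's CellTiter-Glo luminescence assay, with percent cytotoxicity normalised to vehicle and positive control wells.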

Compound | area under intracellular growth-inhibition dose-response curve [1] | area under cytotoxicity dose-response curve [2]
O=C(COc1ccccc1)NC(=S)Nc1ccc2c(c1)Cc1ccccc1-2 | 190 | 74
CC(C)(C)C(=O)N1CCN(c2ccc(NC(=O)c3ccc([N+](=O)[O-])o3)cc2)CC1 | 105 | 104
O=C(NC1CCCCCC1)c1ccc(Br)o1 | 231 | 27.7
NC1=NC[C@@H](CC2CCCCC2)N1CCc1cc(C(F)(F)F)cc(C(F)(F)F)c1 | 52.6 | 109
Cc1ccc(C)c(NC(=O)CN(C)C(=O)c2ccc(S(=O)(=O)N3CCCCCC3)cc2)c1 | 30.7 | < 0
Cc1nc(SCC(=O)NCc2ccc3c(c2)OCO3)nc(C)c1C | 54.6 | < 0
COc1ccc(/C=N/NC(=O)c2ccncc2)cc1Cn1nc([N+](=O)[O-])c(Br)c1C | 273 | < 0
COc1ccc(CCNC(=O)c2cc([N+](=O)[O-])cc([N+](=O)[O-])c2)cc1OC | 243 | < 0
O=C(Cn1c(=O)cnc2ccccc21)Nc1cccc(S(=O)(=O)N2CCOCC2)c1 | 23.9 | 30.4
COc1ccc(NC(=O)C(C)NC2=NS(=O)(=O)c3ccccc32)cc1S(N)(=O)=O (stereo unspecified) | 63.2 | 8.48
CCc1nnc(NS(=O)(=O)c2ccc(N/C=C3/C(=O)NC(=O)N(c4ccccc4)C3=O)cc2)s1 | 31 | 38
O=C(/C=C/c1ccc(S(=O)(=O)N2CCOCC2)cc1)NCCc1ccc(C(F)(F)F)cc1 | 102 | 42
Cc1occc1C(=O)N/N=C/C=C/c1ccccc1 | 87.6 | 60
CCCCCCn1c(=O)c(C(=O)Nc2cnccn2)c(O)c2ccccc21 | 56.4 | < 0
COc1ccc(C(=O)Oc2cccc(/C=N/NC(N)=S)c2)cc1 | 145 | 65
COc1ccc(CCNc2cc(-c3ccccc3)nc3ncnn23)cc1 | 218 | < 0
CC(C)CCNC(=O)c1csc2c1CCCCC2 | 250 | 42.8
Nc1ccc(C(=O)O)c(O)c1 | 182 | 62.3
Cn1nc(C(=O)OCC(=O)NCc2ccc(Cl)cc2)c2ccccc2c1=O | 83 | 4.5
CCOc1ccc(-c2c(C)[n+](-c3ccc(OCC)cc3)c3n2CCCCC3)cc1.[O-][Cl+3]([O-])([O-])[O-] | 57.1 | 8.93
CC(=O)/C=C(\C)Nc1ccccc1O | 54.6 | 95
CCCc1cc(C(N)=S)ccn1 | 215 | 8.35
CCOC(=O)c1ccc(NC(=O)c2cc3c(s2)CCC3)cc1 | 234 | 11.2
CNc1nc(SC)nc2ccccc12 | 242 | 77.9

Compound | area under intracellular growth-inhibition dose-response curve [1] | area under cytotoxicity dose-response curve [2]
CC(NC(=O)c1ccc(F)cc1)c1ccc(F)cc1 (stereo unspecified) | 230 | 31.2
C/C(CC(=O)NCCN1CCOCC1)=N\NC(=O)c1ccncc1 | 206 | 12.5
O=[N+]([O-])c1cc([N+](=O)[O-])c2nonc2c1Nc1ccccc1O | 146 | 5.05
N=C(NCCCCCCNC(=N)NC(=N)Nc1ccc(Cl)cc1)NC(=N)Nc1ccc(Cl)cc1 | 89.5 | 165
Cc1cc(C(F)F)nn1CC(=O)NC1C(=O)N2C(C(=O)O)=C(CSc3nnnn3C)CSC12 (stereo unspecified) | 86.3 | 110
Cc1ccc(C2=NCCn3c2c2ccc([N+](=O)[O-])cc2[n+]3[O-])cc1 | 20.7 | 96.8
CC[C@H](CO)NCCN[C@H](CC)CO.Cl | 68.5 | 52.1
COc1ccc(/C=C/C(=O)c2ccc([N+](=O)[O-])o2)cc1OC | 3.95 | 118
O=C(c1cccs1)N1CCC(c2ccccc2)C1 (stereo unspecified) | 189 | < 0
O=C(NCc1cccc(C(F)(F)F)c1)c1ccc[nH]1 | 91 | 2.14
COc1ccc(OCC(=O)NC(=S)Nc2ccc(N3CCOCC3)c(Cl)c2)cc1 | 173 | 123
CCCCC(=O)NCc1ccccc1Cl | 262 | 22.2
C[n+]1c2ccccc2nc2ccc(NCCO)cc21.[O-][Cl+3]([O-])([O-])[O-] | 107 | < 0
Cc1cc(=O)c2cc(Br)ccc2n1CC(=O)NCc1ccccc1 | 233 | 41.6
Cc1ccc(/C=N/NC(=O)C2COc3ccccc3O2)s1 (stereo unspecified) | 196 | < 0
CCCCCOc1ccc(C(=O)CCC(=O)NNC(=O)c2ccncc2)cc1 | 224 | 75.4
CC(C)c1ccc(NC(=S)NC2CCCCCC2)cc1 | 141 | < 0
O=C(c1ccc(Cl)c(Cl)c1)N1CCCC1 | 86.7 | 52.5
CCCCCc1ccc(OCCC[n+]2ccccc2)c(CCCCC)c1.[Cl-] | 137 | 53
CC(C)Oc1ccc(/C=N/NC(N)=S)cc1 | 275 | 17.8
COc1ccc(NC(=S)Nc2ccc(N)c([N+](=O)[O-])c2)cc1 | 167 | 5.13
CNc1ccc2oc(C[C@H]3O[C@@]4(CC[C@H]3C)O[C@H]([C@H](C)C(=O)c3ccc[nH]3)[C@H](C)C[C@H]4C)nc2c1C(=O)O | 148 | 9.01
Cc1cc(O)c2c(n1)c(C)cc1[nH]c(C)c(C)c12 | 137 | < 0
O=[N+]([O-])c1nn(-c2ccc(Cl)cc2)[n+]([O-])c1NCc1ccncc1 | 30.7 | 11.5
